Measured values: PubChem BioAssay (NCI)
Several values for one entry are separate records, joined by “and”; a condition that tells them apart may be missing. Equal values may be shown once.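 Following 48 hours of exposure in 96-well plates, responses at five concentrations were used to interpolate endpoints linearly. GI50: concentration for 50% inhibition of growth. At the TGI there is no net growth.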

Key:
Test in all cases: DTP human tumour cell line panel, 48 h
[1] = tested on: OVCAR-5 ovarian
[2] = tested on: ACHN renal
[3] = tested on: UACC-62 melanoma
[4] = tested on: MDA-MB-435
[5] = tested on: NCI-H460 lung
[6] = tested on: HS 578T breast
[7] = tested on: SF-295 CNS
[8] = tested on: SNB-19 CNS
[9] = tested on: PC-3 prostate
[10] = tested on: BT-549 breast

Row | SMILES | GI50 [1] [µM] | TGI [1] | GI50 [2] [µM] | TGI [2] | GI50 [3] [µM] | TGI [3] | GI50 [4] [µM] | TGI [4] | GI50 [5] [µM] | TGI [5] | GI50 [6] [µM] | TGI [6] | GI50 [7] [µM] | TGI [7] | GI50 [8] [µM] | TGI [8] | GI50 [9] [µM] | TGI [9] | GI50 [10] [µM] | TGI [10] [µM]
1 | COC(=O)c1cncc(/C=C/c2c(C)cc(O)cc2C)c1 | > 24.1 | > 25 µM | > 21.5 | > 25 µM | 7.71 | > 25 µM | 3.42 | 11.7 µM | 8.95 | > 25 µM | 6.91 | > 25 µM | > 19.1 | > 25 µM | > 21.9 | > 25 µM | 12.2 | > 25 µM | > 20.1 | > 25
2 | O=C(/C=C/c1cccc(O)c1)c1cccc(-n2cc(-c3ccccc3)[nH]c2=O)c1 | 3.86 | 11.9 µM | 2.72 | 7.4 µM | 2.82 | 9.54 µM | 2.53 | 9.64 µM | 2.84 | 7.4 µM | 5.7 | 44.6 µM | 5.77 | 11.8 µM | 6.58 | 18.6 µM | 2.82 | 11.1 µM | 3.57 | 9.79
3 | COC(=O)CCCCC(=O)c1c(C)[nH]c(/C=C2\N=C(c3ccc[nH]3)C=C2OC)c1C | 0.87 | 2.38 µM | 1 | 2.32 µM | 1.25 | 2.69 µM | 0.328 | 1.22 µM | 3.03 | 10.1 µM | 1.02 | 3.05 µM | 1.52 | 3.05 µM | 1.53 | 3.16 µM | 0.47 | 1.88 µM | 0.418 | 1.85
4 | Cc1cc(N=Nc2ccccc2C)ccc1N | 15 | 41.3 µM and 37.6 µM | 14.7 | 28.7 µM and 45.8 µM |  | 25.1 µM and 30.6 µM | 12.7 | 49.3 µM and 46 µM | 12.3 | 17.7 µM and 31.2 µM | 13.3 | 32.1 µM and 45.9 µM |  | 25.2 µM and 31.3 µM | 16.4 | > 100 µM and 56 µM | 5.99 | 26.8 µM and 91.5 µM |  | 23.2
5 | COC1C(N)C(OC2C(Oc3cccc4c(O)c5c(=O)oc6ccc(C)c7c(=O)oc(c34)c5c67)OC(C)C(O)C2(C)O)OC(C)C1O (stereo not drawn) |  | 1.45 µM |  | 1.5 µM |  | 0.147 µM |  | 0.219 µM |  | 0.139 µM |  | 0.886 µM |  | 1.21 µM |  | 0.469 µM |  | 1.18 µM |  | 0.214
6 | Cn1cc(C2=C(c3cccc(OC[C@@H](O)CO)c3)C(=O)NC2=O)c2ccccc21 | > 25 | > 25 µM | 16.5 | > 25 µM | > 25 | > 25 µM | > 25 | > 25 µM | > 25 | > 25 µM | 1.39 | > 25 µM | 3.59 | > 25 µM | > 25 | > 25 µM | > 25 | > 25 µM | 12.3 | > 25
7 | C[N+](C)(C)CC1CCCC1=O (stereo not drawn) |  | 14.8 µM |  | 9.94 µM |  | 5.67 µM |  | 3.22 µM |  | 38.9 µM |  | 16.6 µM |  | 36.4 µM |  | 50.8 µM |  | 2.91 µM |  | 2.32
8 | N#CCCN1C/C(=C/c2ccc(Cl)cc2)C(=O)/C(=C/c2ccc(Cl)cc2)C1 | 2.07 | 4.7 µM | 1.63 | 3.28 µM | 1.8 | 4.1 µM | 1.37 | 2.99 µM | 0.707 | 2.52 µM | 2.9 | 12.8 µM |  |  | 1.31 | 2.72 µM | 0.489 | 3.61 µM | 1.24 | 2.65
9 | C#CCNC(=O)[C@H](CC)[C@H]1CC[C@H](C)[C@H]([C@@H](C)[C@H](O)[C@H](C)C(=O)[C@H](CC)C2O[C@]3(C=CC(=O)[C@]4(CC[C@@](C)([C@H]5CC[C@](O)(CC)[C@H](C)O5)O4)O3)[C@H](C)C[C@@H]2C)O1 (stereo partly drawn) | 2.62 | 8.16 µM | 2.94 | 14.6 µM | 1.68 | 4.28 µM |  |  | 2.55 | 6.94 µM | 2.06 | 6.71 µM | 1.57 | 3.56 µM | 2.36 | 7.96 µM | 2 | 8.78 µM | 1.83 | 3.93
10 | CC(=O)NCc1cccc(C#Cc2cncnc2Nc2ccc(OCc3cccc(F)c3)c(Cl)c2)c1 | 9.13 | > 25 µM | 5.84 | > 25 µM | 9.87 | > 25 µM | 8.41 | > 25 µM | 10.6 | > 25 µM | > 22.4 | > 25 µM | 8.02 | > 25 µM | > 21.8 | > 25 µM | 8.37 | > 25 µM | 13.5 | > 25
11 | Oc1c(I)cc(I)c2cccnc12 | 3.57 | 24.6 µM | 4.19 | 26.8 µM | 3.09 | 15.6 µM | 4.41 | > 100 µM | 2.93 | 10.4 µM | 7.24 | > 100 µM | 3.1 | 8.13 µM | 3.33 | 22.5 µM | 4.68 | > 100 µM | 0.833 | 33.9
12 | Oc1cccc2ccc(N/N=C/c3cc(CN4CCOCC4)c(O)c4ncccc34)nc12 | 0.135 | 15.4 µM | < 0.0119 | 1.47 µM | 0.0339 | 0.55 µM | 0.0165 | 2.86 µM | < 0.0104 | 1.2 µM | 0.0479 | 17.2 µM | 0.0471 | 5.27 µM | 0.0169 | 12.6 µM | 0.0346 | 4.92 µM | 0.0363 | 2.78
13 | N#CC1=C(/N=C/c2ccccc2)Oc2c(ccc3ccccc23)C1c1ccccc1 (stereo not drawn) | 2.13 | > 100 µM | 0.591 | > 100 µM | 0.653 | > 100 µM | 0.227 | 0.573 µM | 0.386 | > 39.3 µM | 0.377 | > 100 µM | 0.357 | > 100 µM | 0.702 | > 100 µM | 0.477 | > 100 µM | 0.951 | > 24.5
14 | O=C(O)CCC(=O)c1ccc2sc3ccccc3c2c1 |  | > 100 µM |  | > 100 µM |  | > 100 µM |  | > 100 µM |  | > 100 µM |  | > 100 µM |  | > 100 µM |  | > 100 µM |  | > 100 µM |  | > 100
15 | COc1cc2c(cc1OCCCCN1CCN(C(=S)SCCC(C#N)(c3ccccc3)c3ccccc3)CC1)N=C[C@@H]1CCCN1C2=O | 2.47 | 5.38 µM |  |  | 1.32 | 3.55 µM | 1.04 | 2.81 µM | 1.25 | 4.02 µM |  |  |  |  | 1.67 | 3.98 µM | 0.697 | 2.41 µM | 1.42 | 8.84
16 | C/C(=C\c1cnc(C)s1)[C@@H]1C[C@@H]2O[C@@H]2CCC[C@H](C)[C@H](O)[C@@H](C)C(=O)C(C)(C)[C@@H](O)CC(=O)O1 | < 0.01 | > 100 µM | < 0.01 | > 100 µM | < 0.01 | > 100 µM |  |  | < 0.01 | > 100 µM | 0.0117 | > 100 µM | 0.0102 | > 100 µM | < 0.01 | > 100 µM | < 0.01 | > 100 µM | < 0.01 | > 100
17 | CN(CCNCc1ccccn1)CCNCc1ccccn1 | 2.66 | 8.57 µM | 2.2 | 5.82 µM | 2.18 | 4.74 µM | 2.21 | 4.93 µM | 3.16 | 9.54 µM |  |  | 2.23 | 5.69 µM | 5.29 | 18.5 µM | 2.27 | 7.59 µM | 1.98 | 4.63
18 | COc1ccc(NC(=O)C2CCC(CNS(=O)(=O)c3ccccc3)CC2)cc1OC (stereo not drawn) | > 100 | > 100 µM | > 100 | > 100 µM | 54.6 | > 100 µM | > 100 | > 100 µM | > 100 | > 100 µM | 76.5 | > 100 µM | > 100 | > 100 µM |  |  | > 100 | > 100 µM | > 100 | > 100
19 | COc1cc2c(cc1OC)-c1ncc3c(OC)c(OC)c(OC)cc3c1C2 | 26.6 | > 100 µM | 16.7 | 43.8 µM | 3.84 | 25.6 µM |  |  | 15.3 | 61.3 µM |  |  | 25.8 | > 100 µM | 23 | 50 µM | > 100 | > 100 µM |  | 
20 | CCCCCO/N=C\c1c2c(O)c3c(O)c(C)c4c(c3c1O)C(=O)C(C)(O/C=C\C(OC)C(C)C(OC(C)=O)C(C)C(O)C(C)C(O)C(C)/C=C\C=C(\C)C(=O)N2)O4 (stereo not drawn) | 1.94 | 4.12 µM | 1.8 | 3.33 µM | 1.39 | 2.71 µM | 1.81 | 3.68 µM | 1.51 | 2.83 µM | 1.69 | 4.2 µM | 1.87 | 4.3 µM | 1.67 | 3.19 µM | 1.65 | 4.5 µM |  | 
